Reference: patent US12281363B2, “Methods for detecting antiviral-drug resistant virus” (Secretary of State for Health and Social Care, priority 2018, dated 2025)
pIC50: −log10 of the molar value. Read-outs that look alike come from different tables or passages of the source.

Test system: HSV-1
Test: Plaque reduction assay, HSV-1 clinical isolates on Vero cells
Assay type: cell-based
Settings: Human alphaherpesvirus 1, Vero
Description: Viral isolates were used to infect a sub-confluent monolayer of Vero cells at a concentration of 75 or 50 plaque forming units (PFU) per well for HSV-1 and HSV-2, respectively. […] CMC medium typically used to create a semisolid interface and prevents indiscrimate viral spreading. Other materials (e.g. agar) may also be used to create this interface.
Cells were fixed with 10% formalin and stained with crystal violet before enumeration of the plaques (microscopic observation or use of fluorescent antibodies for detection is also suitable). The data obtained from these experiments were then expressed as percent inhibition of viral infectivity relative to the no drug control.
Definitions of phenotypic drug susceptibility classification as sensitive or resistant were as follows: ACV, <3 μM or >40 μM; PCV, <10 μM or >40 μM; CDV, <24 μM or >30 μM; FOS, <250 μM or >400 μM; and ACV, <6.5 μM or >40 μM; PCV, <38 μM or >40 μM; FOS, <250 μM or >400 μM for HSV-1 and HSV-2, respectively. Any IC50 values falling in between these sensitive and resistant cut-offs were reported as intermediate resistance.
The phenotype (i.e. reactivity to a drug) of the virus was characterised by the plaque reduction assay as described above.

With Nc1ccn(C[C@@H](CO)OCP(=O)(O)O)c(=O)n1 [Cidofovir, cidofovir] as the compound, how does the pIC50 (72 h, isolate HPG053, HSV-1 pol L802R + A834S (2405T>G, 2500G>T), also TK R176W, read-out: Drug susceptibility (IC50 value)) read?
The pIC50 was 5.11.

And the pIC50 (isolate HPG002, HSV-1 pol E992K (2974G>A), also TK insert (G) nt 430-436, pol A1169T, read-out: Drug susceptibility (IC50 value))?
Its pIC50 is 5.22.

And the pIC50 (isolate HPG002, HSV-1 pol E992K (2974G>A), also TK insert (G) nt 430-436, pol A1169T, read-out: Drug susceptibility Cidofovir (CDV))?
The pIC50 was > 4.62.

And the pIC50 (isolate HPG003, HSV-1 TK Y172S (515A>C), read-out: Drug susceptibility (IC50 value))?
The pIC50 was > 5.81.

What about the pIC50 (isolate HPG003, HSV-1 TK Y172S (515A>C), read-out: Drug susceptibility Cidofovir (CDV)) of the same compound?
Its pIC50 is > 4.62.

What about the pIC50 (isolate HPG005, HSV-1 TK A37V (110C>T), read-out: Drug susceptibility (IC50 value)) of the same compound?
The pIC50 was 5.66.

What about the pIC50 (isolate HPG005, HSV-1 TK A37V (110C>T), read-out: Drug susceptibility Cidofovir (CDV)) of the same compound?
Its pIC50 is > 4.62.

And the pIC50 (isolate HPG008, HSV-1 TK V204G (611T>G), read-out: Drug susceptibility (IC50 value))?
The pIC50 was 5.45.

And the pIC50 (isolate HPG008, HSV-1 TK V204G (611T>G), read-out: Drug susceptibility Cidofovir (CDV))?
Its pIC50 is > 4.62.

And the pIC50 (isolate HPG009, HSV-1 pol E992K (2974G>A), also pol A1169T, read-out: Drug susceptibility (IC50 value))?
Its pIC50 is 5.03.

What about the pIC50 (isolate HPG009, HSV-1 pol E992K (2974G>A), also pol A1169T, read-out: Drug susceptibility Cidofovir (CDV)) of the same compound?
Its pIC50 is > 4.62.

What about the pIC50 (isolate HPG010, HSV-1 TK Q125* (373C>T), read-out: Drug susceptibility (IC50 value)) of the same compound?
Its pIC50 is > 5.81.

What about the pIC50 (isolate HPG010, HSV-1 TK Q125* (373C>T), read-out: Drug susceptibility Cidofovir (CDV)) of the same compound?
Its pIC50 is > 4.62.

What about the pIC50 (isolate HPG011, HSV-1 TK Q125* (373C>T), read-out: Drug susceptibility (IC50 value)) of the same compound?
The pIC50 was > 5.81.

What about the pIC50 (isolate HPG011, HSV-1 TK Q125* (373C>T), read-out: Drug susceptibility Cidofovir (CDV)) of the same compound?
The pIC50 was > 4.62.

What about the pIC50 (isolate HPG013, HSV-1 TK M121I (363G>A), read-out: Drug susceptibility (IC50 value)) of the same compound?
Its pIC50 is 5.51.

And the pIC50 (isolate HPG013, HSV-1 TK M121I (363G>A), read-out: Drug susceptibility Cidofovir (CDV))?
Its pIC50 is > 4.62.

What about the pIC50 (isolate HPG013, HSV-1 pol D83A (248A>C), also TK M121I, pol A1169T, read-out: Drug susceptibility (IC50 value)) of the same compound?
The pIC50 was 5.51.

And the pIC50 (isolate HPG013, HSV-1 pol D83A (248A>C), also TK M121I, pol A1169T, read-out: Drug susceptibility Cidofovir (CDV))?
Its pIC50 is > 4.62.

What about the pIC50 (isolate HPG014, HSV-1 pol A1115T (3343G>A), read-out: Drug susceptibility (IC50 value)) of the same compound?
The pIC50 was 4.76.

What about the pIC50 (isolate HPG014, HSV-1 pol A1115T (3343G>A), read-out: Drug susceptibility Cidofovir (CDV)) of the same compound?
Its pIC50 is > 4.62.

What about the pIC50 (isolate HPG014, HSV-1 pol R993C (2977C>T), read-out: Drug susceptibility (IC50 value)) of the same compound?
The pIC50 was 4.76.

What about the pIC50 (isolate HPG014, HSV-1 pol R993C (2977C>T), read-out: Drug susceptibility Cidofovir (CDV)) of the same compound?
The pIC50 was > 4.62.

And the pIC50 (isolate HPG014, HSV-1 pol T54A (160A>G), read-out: Drug susceptibility (IC50 value))?
Its pIC50 is 4.76.

What about the pIC50 (isolate HPG014, HSV-1 pol T54A (160A>G), read-out: Drug susceptibility Cidofovir (CDV)) of the same compound?
The pIC50 was > 4.62.

What about the pIC50 (isolate HPG015, HSV-1 pol 966stop or F965_I966insF (2892_2893insT to 2895_2896insT), read-out: Drug susceptibility (IC50 value)) of the same compound?
Its pIC50 is 4.35.

What about the pIC50 (isolate HPG015, HSV-1 pol 966stop or F965_I966insF (2892_2893insT to 2895_2896insT), read-out: Drug susceptibility Cidofovir (CDV)) of the same compound?
The pIC50 was < 4.52.

What about the pIC50 (isolate HPG018, HSV-1 TK frameshift (881delC to 885delC), read-out: Drug susceptibility (IC50 value)) of the same compound?
The pIC50 was 5.52.

What about the pIC50 (isolate HPG018, HSV-1 TK frameshift (881delC to 885delC), read-out: Drug susceptibility Cidofovir (CDV)) of the same compound?
The pIC50 was > 4.62.

What about the pIC50 (isolate HPG018, HSV-1 pol P1199T (3595C>A), also TK deletion (C) nt 881-885, pol A1169T, read-out: Drug susceptibility (IC50 value)) of the same compound?
Its pIC50 is 5.52.

And the pIC50 (isolate HPG018, HSV-1 pol P1199T (3595C>A), also TK deletion (C) nt 881-885, pol A1169T, read-out: Drug susceptibility Cidofovir (CDV))?
Its pIC50 is > 4.62.

And the pIC50 (isolate HPG019, HSV-1 pol K750T (2249A>C), also TK deletion (G) nt 430-436, pol A1169T, read-out: Drug susceptibility (IC50 value))?
The pIC50 was 4.69.

And the pIC50 (isolate HPG019, HSV-1 pol K750T (2249A>C), also TK deletion (G) nt 430-436, pol A1169T, read-out: Drug susceptibility Cidofovir (CDV))?
Its pIC50 is > 4.62.

And the pIC50 (isolate HPG020, HSV-1 pol S911N (2732G>A), also pol A1169T, read-out: Drug susceptibility (IC50 value))?
The pIC50 was 5.36.

What about the pIC50 (isolate HPG020, HSV-1 pol S911N (2732G>A), also pol A1169T, read-out: Drug susceptibility Cidofovir (CDV)) of the same compound?
The pIC50 was > 4.62.

And the pIC50 (isolate HPG021, HSV-1 pol R681Q (2042G>A), also TK deletion (G) nt 430-436, read-out: Drug susceptibility (IC50 value))?
Its pIC50 is > 5.81.

What about the pIC50 (isolate HPG021, HSV-1 pol R681Q (2042G>A), also TK deletion (G) nt 430-436, read-out: Drug susceptibility Cidofovir (CDV)) of the same compound?
Its pIC50 is > 4.62.

And the pIC50 (isolate HPG021, HSV-1 pol T839A (2515A>G), also TK deletion (G) nt 430-436, read-out: Drug susceptibility (IC50 value))?
Its pIC50 is > 5.81.

And the pIC50 (isolate HPG021, HSV-1 pol T839A (2515A>G), also TK deletion (G) nt 430-436, read-out: Drug susceptibility Cidofovir (CDV))?
The pIC50 was > 4.62.

And the pIC50 (isolate HPG025, HSV-1 pol E850Q (2548G>C), also TK R216C, read-out: Drug susceptibility (IC50 value))?
The pIC50 was > 5.81.

And the pIC50 (isolate HPG025, HSV-1 pol E850Q (2548G>C), also TK R216C, read-out: Drug susceptibility Cidofovir (CDV))?
The pIC50 was > 4.62.

And the pIC50 (isolate HPG026, HSV-1 pol E850Q (2548G>C), also TK R216C, pol A1169T, read-out: Drug susceptibility (IC50 value))?
Its pIC50 is > 5.81.

And the pIC50 (isolate HPG026, HSV-1 pol E850Q (2548G>C), also TK R216C, pol A1169T, read-out: Drug susceptibility Cidofovir (CDV))?
The pIC50 was > 4.62.

What about the pIC50 (isolate HPG027, HSV-1 TK V204G (611T>G), also pol S914L, A1169AT, read-out: Drug susceptibility (IC50 value)) of the same compound?
The pIC50 was 5.41.

And the pIC50 (isolate HPG027, HSV-1 TK V204G (611T>G), also pol S914L, A1169AT, read-out: Drug susceptibility Cidofovir (CDV))?
Its pIC50 is > 4.62.

And the pIC50 (isolate HPG027, HSV-1 pol S914L (2741C>T), also TK V204G, pol A1169T, read-out: Drug susceptibility (IC50 value))?
Its pIC50 is 5.41.

And the pIC50 (isolate HPG027, HSV-1 pol S914L (2741C>T), also TK V204G, pol A1169T, read-out: Drug susceptibility Cidofovir (CDV))?
The pIC50 was > 4.62.

What about the pIC50 (isolate HPG029, HSV-1 TK Y172S (515A>C), read-out: Drug susceptibility (IC50 value)) of the same compound?
The pIC50 was 5.52.

And the pIC50 (isolate HPG029, HSV-1 TK Y172S (515A>C), read-out: Drug susceptibility Cidofovir (CDV))?
Its pIC50 is > 4.62.

What about the pIC50 (isolate HPG031, HSV-1 pol E1120A (3359A>C), also a TK resistance mutation (footnote e), read-out: Drug susceptibility (IC50 value)) of the same compound?
Its pIC50 is 5.32.

And the pIC50 (isolate HPG031, HSV-1 pol E1120A (3359A>C), also a TK resistance mutation (footnote e), read-out: Drug susceptibility Cidofovir (CDV))?
Its pIC50 is > 4.62.

And the pIC50 (isolate HPG031, HSV-1 pol G139R (415G>C or 415G>A), also a TK resistance mutation (footnote e), read-out: Drug susceptibility (IC50 value))?
Its pIC50 is 5.32.

And the pIC50 (isolate HPG031, HSV-1 pol G139R (415G>C or 415G>A), also a TK resistance mutation (footnote e), read-out: Drug susceptibility Cidofovir (CDV))?
Its pIC50 is > 4.62.

What about the pIC50 (isolate HPG032, HSV-1 TK 183* (437_438insA), read-out: Drug susceptibility (IC50 value)) of the same compound?
Its pIC50 is 5.44.
